Data as given in the supplement of paper PMC11451515.

Legend:
Assay in all cases: AUC of viability dose-response curve (% viability x log10 dose units); higher = less sensitive
Details in all cases: 48 h
P12-Ichikawa = tested on: P12-Ichikawa
Method in brief: (§1)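 Leukemia cells adapted to each medium were seeded at 500 or 1000 cells/well in 1536-well plates and dosed with library compounds in DMSO at 11 threefold doses from 47 μM to 0.79 nM for 48 h at 37°C. CellTiter-Glo One luminescence was normalised per plate to DMSO and cell-free wells, then fitted with a four-parameter log-logistic model over log10 doses. Area under the curve was taken from this fit by the trapezoidal rule, with curves above full viability scaled and curves failing quality control removed.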

NOMO1 = tested on: NOMO1
Method in brief: as §1

SEM cells = tested on: SEM cells
Method in brief: as §1

[1] = RPMI 5 mM glucose + 10% dialyzed FBS

Row | SMILES | AUC of viability dose-response curve (P12-Ichikawa; HPLM + 10% dialyzed FBS) | AUC of viability dose-response curve (P12-Ichikawa; RPMI 5 mM glucose + 10% FBS) | AUC of viability dose-response curve (P12-Ichikawa; [1]) | AUC of viability dose-response curve (NOMO1; HPLM + 10% dialyzed FBS) | AUC of viability dose-response curve (NOMO1; RPMI 5 mM glucose + 10% FBS) | AUC of viability dose-response curve (NOMO1; [1]) | AUC of viability dose-response curve (SEM cells; HPLM + 10% dialyzed FBS) | AUC of viability dose-response curve (SEM cells; RPMI 5 mM glucose + 10% FBS) | AUC of viability dose-response curve (SEM cells; [1])
1 | CC1(C)CC\C2=C(/O1)C3=C(C=CC=C3)C(=O)C2=O | 449 | 447 | 450 | 449 | 446 | 451 | 437 | 436 | 401
2 | NC1=NC(=O)N2CC12 (centres undefined) | 400 | 369 | 349 | 367 | 350 | 352 | 312 | 314 | 281
3 | CCOC(=O)N1CCN(/[N+]([O-])=N/Oc2cc(O/N=[N+](\[O-])N3CCN(C(=O)OCC)CC3)c([N+](=O)[O-])cc2[N+](=O)[O-])CC1 | 460 | 476 | 450 | 476 | 460 | 463 | 449 | 464 | 474
4 | NCCCC(N)(C(=O)O)C(F)F (centres undefined) | 462 | 448 | 449 | 454 | 443 | 461 | 446 | 460 | 461
5 | Cc1cc(Nc2ncc3c(n2)N(C)C(=O)N(c2cc(NC(=O)c4cccc(C(F)(F)F)c4)ccc2C)C3)n(C)n1 | 399 | 374 | 381 | 341 | 362 | 357 | 293 | 278 | 277
6 | CCn1nnc2c(N3CCOCC3)nc(-c3ccc(NC(=O)Nc4ccc(C(=O)N5CCN(C)CC5)cc4)cc3)nc21 | 391 | 353 | 352 | 309 | 395 | 341 | 330 | 296 | 337
7 | CO[C@H]1CCC(O[C@H]2C[C@H]([C@]3(C)CC[C@]4(C[C@H](O)[C@@H](C)[C@@H]([C@@H](C)/C=C(\C)C(=O)[C@H](C)C[C@H](C)C(=O)[O-])O4)O3)O[C@]3(O[C@@H]([C@H]4O[C@@](O)(CO)[C@H](C)C[C@@H]4C)C[C@@H]3C)[C@@H]2C)O[C@@H]1C (some centres undefined) | 353 | 366 | 376 | 405 | 449 | 415 | 368 | 352 | 344
8 | COc1cc(NCc2ccc3nc(N)nc(N)c3c2C)cc(OC)c1OC | 346 | 383 | 350 | 347 | 397 | 380 | 345 | 370 | 336
9 | C[C@@H]1[C@H]\2[C@H](O)[C@H]3[C@H](N(C)C)\C(=C(C(N)=O)/C(=O)[C@@]3(O)\C(=C2C(=O)C4=C(O)C=CC=C14)O)O | 473 | 462 | 462 | 470 | 465 | 472 | 468 | 473 | 440
10 | COc1ccc(CCC(=O)c2c(O)cc(O[C@@H]3O[C@H](CO)[C@@H](O)[C@H](O)[C@H]3O[C@@H]3O[C@@H](C)[C@H](O)[C@@H](O)[C@H]3O)cc2O)cc1O | 458 | 442 | 463 | 413 | 426 | 425 | 464 | 455 | 465
11 | C=CC(=O)Nc1cc2c(Nc3ccc(F)c(Cl)c3)ncnc2cc1C#CC(C)(C)N1CCN(C)CC1 | 395 | 395 | 383 | 382 | 395 | 387 | 360 | 357 | 363
12 | Clc2cccc(Cl)c2\N=C1/NCCN1 | 446 | 448 | 452 | 455 | 474 | 468 | 414 | 407 | 429
13 | Nc1ccc(C(=O)c2cc3c(ccc4ccccc43)[nH]2)cc1 | 348 | 359 | 359 | 412 | 425 | 417 | 374 | 373 | 361
14 | Cc1ccc(Nc2cc(-c3cccc(N4C(=O)c5ccccc5C4=O)c3)ncn2)cc1N[S+](C)(=O)[O-] | 466 | 465 | 474 | 461 | 473 | 469 | 468 | 463 | 468
15 | OC[C@H]1O[C@H](C[C@@H]1O)N2/C=C(C(=O)NC2=O)/C(F)(F)F | 317 | 375 | 371 | 356 | 449 | 391 | 317 | 407 | 350
16 | O=C(O)c1cc(O)c2c(c1)C(=O)c1cccc(O)c1C2=O | 455 | 464 | 443 | 464 | 445 | 466 | 451 | 460 | 464
17 | CC[C@H]1OC(=O)[C@H](C)[C@@H](O[C@H]2C[C@@](C)(OC)[C@@H](O)[C@H](C)O2)[C@H](C)[C@@H](O[C@@H]2O[C@H](C)C[C@H](N(C)C)[C@H]2O)[C@](C)(OC)C[C@@H](C)C(=O)[C@H](C)[C@@H](O)[C@]1(C)O | 435 | 443 | 437 | 405 | 440 | 409 | 452 | 461 | 452
18 | CC(C)(N)C(=O)N[C@H](COCc1ccccc1)C(=O)N1CCC2(CC1)CN([S+](C)(=O)[O-])c1ccccc12 | 445 | 440 | 438 | 402 | 460 | 446 | 448 | 437 | 419
19 | CCC(CCCC)COC(=O)C(\C#N)=C(\c1ccccc1)c2ccccc2 (centres undefined) | 463 | 469 | 460 | 465 | 439 | 431 | 438 | 425 | 449
20 | COc1c(Cl)cc2c([nH]c3cnccc32)c1NC(=O)c1cccnc1C | 462 | 468 | 454 | 464 | 473 | 471 | 469 | 405 | 465
21 | CCOC(=O)c1c(C)n(C)c2ccc(O)cc12 | 456 | 436 | 443 | 468 | 455 | 461 | 447 | 462 | 463
22 | CCCCCCNC(=O)N1\C=C(F)/C(=O)NC1=O | 458 | 459 | 456 | 451 | 468 | 443 | 466 | 458 | 435
23 | Nc1n[nH]c2nnc(-c3c(-c4ccccc4)nn4ccccc34)cc12 | 404 | 403 | 429 | 378 | 354 | 379 | 446 | 449 | 455
24 | Cc1c(N)nc([C@H](CC(N)=O)NC[C@@H](N)C(N)=O)nc1C(=O)N[C@H](C(=O)N[C@@H](C)[C@H](O)[C@@H](C)C(=O)N[C@@H](C(=O)NCCc1nc(-c2nc(C(=O)NCCC[S+](C)C)cs2)cs1)[C@@H](C)O)C(O[C@H]1O[C@H](CO)[C@H](O)[C@@H](O)[C@H]1O[C@H]1O[C@H](CO)[C@@H](O)[C@H](OC(N)=O)[C@@H]1O)c1c[nH]cn1 (some centres undefined) | 411 | 378 | 424 | 394 | 416 | 434 | 415 | 382 | 384
25 | Cc1nc(-c2ccc(OCC(C)C)c(C#N)c2)sc1C(=O)O | 467 | 424 | 437 | 461 | 471 | 468 | 475 | 472 | 458
26 | Cc1ccc([C@@H]2O[C@H](CO)[C@@H](O)[C@H](O)[C@H]2O)cc1Cc1ccc(-c2ccc(F)cc2)s1 | 465 | 467 | 465 | 467 | 468 | 472 | 475 | 467 | 468
